Reference: patent US5432195A, “Benzofuran derivative and pharmaceutical composition” (Nippon Shinyaku Company Limited, priority 1991, dated 1995)
Structures can show the parent of a compound that is named as a salt.

How the values were obtained:
[1] = system: total cholesterol (TC) in serum; assay: lowering total cholesterol (TC) in serum using normal rhesus monkeys; assay type: in vivo; conditions: oral
Text: 1) An action of lowering total cholesterol (TC) in serum using normal rhesus monkeys. Test Method: Male rhesus monkeys of 2-5 years age (body weight: 3.0-6.4 kg; Experiment No.1) or male rhesus monkeys of 2-6 years age (body weight: 3.5-8.0 kg; Expt. Nos. 2, 3 and 4) were subjected to the experiments. During the experiment, solid feed (manufactured by Oriental Yeast) was given at the dose of 150 g once daily. Each group consisted of 2 to 6 monkeys. The substance to be tested was in a form of suspension in 0.5% methylcellulos solution. The suspension was given orally using rubber probe at the dose of 30, 50 or 100 mg/kg for seven days (Expt. Nos. 1 and 2(2)) or for 28 days (Expt. Nos. 2(1), 3 and 4). Blood was taken from saphena in lower limbs one week and immediately before the administration and also 7, 14, 21 and 28 days after the administration of the suspension whereby serum TC was measured. The change rate of serum TC was calculated by the following expression. The change rate of serum TC=(ATC-BTC)/BTC×100 In the expression, ATC is the TC after administration of the substance tested while BTC is the TC before the administration (average of those one week and immediately before the administration).

[2] = system: serum TC; assay: Serum TC lowering action in normal crab-eating macaques; assay type: in vivo
Text: 2) Serum TC lowering action in normal crab-eating macaques.
Test Method: Male crab-eating macaques (body weight: 2.5-6.6 kg) were subjected to the experiments. During the expriment period, the feed (manufactured by Oriental Yeast) containing 0.1% (Expt. No. 1) or 0.3% (Expt. No. 2) of the compound of Example 4 was given once daily a 35 g/kg for 5 weeks (0.1%) or for 8 weeks (0.3%). Usual feed for monkeys was given to the control group. Blood was taken immediately before the administration and 1, 2 and 5 weeks after the administration in the case of 0.1% mixed feed or, in the case of 0.3% mixed feed, immediately before and 2, 4, 6 and 8 weeks after the administration. All operations for taking blood were conducted prior to giving the feed and the serum TC therein was measured. The change rate of the serum TC was calculated by the following expression.
The change rate of serum TC=(ATC-BTC)/BTC×100
In the expression, ATC is the TC after administration of the substance tested and BTC is the TC immediately before administration.

[3] = system: cholesterol synthesis (liver slices of rat); assay: lipid biosynthesis of tissue slices of liver of rat (part 2): cholesterol synthesis; assay type: cell-based; conditions: 2 h, 10 μg/ml, percentage to the control
Method: (§1) Test method: Krebs-Ringer-Bicarbonate solution (1 ml) containing 1 mM of ^14 C-acetic acid and 10 μg/ml of the test substance was added to 100 mg of liver slices of rat, the air was substituted with a mixed gas (oxygen:carbon dioxide=95:5) and incubation was conducted at 37° C. for 2 hours. After completion of the reaction, 15% ethanolic solution of potassium hydroxide was added and saponification was conducted at 75° C. for 2 hours. A part of the saponified solution was subjected to a measurment of protein. Residual saponified solution was extracted with petroleum ether and the radioactivity of the petroleum ether layer was measured to determine the cholesterol synthesizing activity. The aqueous layer was acidified with 6N hydrochloric acid, extracted with petroleum ether and the radioactivity of the extract was measured to determine fatty acid synthesizing activity. The values were expressed in terms of percentage to the control after calculating the mol numbers (nmol/mg) of the ^14 C-acetic acid incorporated into each extract per protein (nmol/mg protein).
(§2) 6) Action of the compounds of the present invention to lipid biosynthesis of tissue slices of liver of rat (part 2)
(§3) The activity of the present invention compound was measured by the same manner as above 5). The values were expressed in terms of percentage to the control after calculating the mol numbers (nmol/mg) of the ^14 C-acetic acid incorporated into each extract per protein (nmol/mg protein).

[4] = system: Mice of ddY-strain; assay: Acute Toxicity; assay type: in vivo; conditions: oral, 2 g/kg
Method: Mice of ddY-strain (7 weeks age; four mice per group) were fasted overnight, the compound of Example 4 of the present invention suspended in 0.5% methylcellulose solution was orally administered at 2 g/kg and the general symptoms until 3 hours after that and those until one week thereafter were checked.

[5] = system: cholesterol synthesis (liver slices of rat); assay: lipid biosynthesis by tissue slices of liver of rat: cholesterol synthesis; assay type: cell-based; conditions: 10 μg/ml, percentage to the control; for activity at 10 µg/mL: Rattus norvegicus, 2 h, read-out: Cholesterol Synth.; for Cholesterol Synth.: 120 min
Method: (§4) 5) Action of the compounds of the present invention to lipid biosynthesis by tissue slices of liver of rat
as §1

[6] = system: fatty acid synthesis (liver slices of rat); assay: lipid biosynthesis by tissue slices of liver of rat: fatty acid synthesis; assay type: cell-based; conditions: 10 μg/ml, percentage to the control; for activity at 10 µg/mL: Rattus norvegicus, 2 h, read-out: Fatty Acid Synth.; for Fatty Acid Synth.: 120 min
Method: as §4, §1

[7] = system: Lp(a); assay: Influence on Lp(a): lowering Lp(a) in plasma in crab-eating monkeys; assay type: in vivo; conditions: 0.3% in feed, average ± S.E.
Method: Five to six crab-eating monkeys (male; body weight ranging 5-9 kg) as one group were fed and, to the group administered with the test sample, the feed containing 0.3% of this invention compound (that of Example 4) was fed while, to the control group, usual feed was given. The Lp(a) concentrations in the plasma were measured by the following method at the initiation of the administration, 13 weeks thereafter and 5 weeks after completion of the administration.
Commercially-available kit manufactured by Biopool Co, was used. In accordance with the procedures as given in the kit, PET buffer and sample buffer were prepared. To 20 μl of the plasma was added 1 ml of sample buffer and to 10 μl or 20 μl the resulting diluted liquid was further added 1.01 ml or 1 ml of the sample buffer to that the liquid diluted to an extent of 5202 times or 2601 times was prepared. In accordance with the steps as instructed by the kit, each 20 μl of the diluted sample was added to each well and measurement was conducted by duplicate. The result was calculated from the working curve prepared from the data obtained for the standard human Lp(a) in the kit.

[8] = system: fatty acid synthesis (liver slices of rat); assay: lipid biosynthesis of tissue slices of liver of rat (part 2): fatty acid synthesis; assay type: cell-based; conditions: 2 h, 10 μg/ml, percentage to the control
Method: as §1, §2, §3

[9] = system: Lp(a); conditions: J. Internal Medicine 226 271-276 (1989); cited from earlier work

CC(C)c1ccc2oc(C(O)COc3ccc(C(=O)O)cc3)cc2c1 (stereo not shown) [Example 9, 2-[2-(4-Carboxyphenoxy)-1-hydroxyethyl]-5-isopropylbenzofuran calcium salt]
TC Change Rate ([1]; 30 mg/kg, after 7 days): -19%
TC Change Rate ([1]; 30 mg/kg, after 14 days): -34%
TC Change Rate ([1]; 30 mg/kg, after 21 days): -29%
TC Change Rate ([1]; 30 mg/kg, after 28 days): -24%

CC(C)(C)c1ccc2oc(C(O)COc3ccc(C(=O)O)cc3)cc2c1 (stereo not shown) [Example 4, 5-tert-Butyl-2-[2-(4-carboxyphenoxy)-1-hydroxyethyl]benzofuran]
TC Change Rate ([2]; 0.1% in the feed, after 1 week): 16%
TC Change Rate ([2]; 0.1% in the feed, after 2 weeks): -18%
TC Change Rate ([2]; 0.1% in the feed, after 5 weeks): -31%
TC Change Rate ([2]; 0.3% in the feed, after 2 weeks): -32%
TC Change Rate ([2]; 0.3% in the feed, after 4 weeks): -46%
TC Change Rate ([2]; 0.3% in the feed, after 6 weeks): -42%
TC Change Rate ([2]; 0.3% in the feed, after 8 weeks): -37%
activity at 10 µg/mL [3]: 61%
Acute toxicity: deaths ([4]; observed until one week): no animals tested were dead
Acute toxicity: general symptoms ([4]; until 3 hours and until one week thereafter): no abnormal symptoms were noticed
activity at 10 µg/mL ([5]; Expt. 1): 41%
activity at 10 µg/mL ([5]; Expt. 2): 27%
activity at 10 µg/mL ([6]; Expt. 1): 20%
activity at 10 µg/mL ([6]; Expt. 2): 12%
Plasma Lp(a) ([7]; 5 weeks after completion of administration): 60.1 ± 7.9 mg/dL
Plasma Lp(a) ([7]; 13 weeks thereafter): 9.2 ± 1.2 mg/dL
Plasma Lp(a) ([7]; Immed. after administration (text: at the initiation)): 73.2 ± 8.5 mg/dL
activity at 10 µg/mL [8]: 29%

CC(C)c1ccc2oc(C(O)COc3ccc(CO)cc3)cc2c1 (stereo not shown) [Example 10, 2-[1-Hydroxy-2-(4-hydroxymethylphenoxy)ethyl]-5-isopropylbenzofuran]
TC Change Rate ([1]; 100 mg/kg, after 7 days): -32%

CC(=O)OC(COc1ccc(C(=O)O)cc1)c1cc2cc(C(C)C)ccc2o1 (stereo not shown) [Example 17, 2-[1-Acetoxy-2-(4-carboxyphenoxy)ethyl]-5-isopropylbenzofuran]
activity at 10 µg/mL [3]: 66%
activity at 10 µg/mL [8]: 33%

CC(C)(C)c1ccc2oc(C(=O)COc3ccc(C(=O)O)cc3)cc2c1 [Example 14, 5-tert-Butyl-2-(4-carboxyphenoxyacetyl)benzofuran]
activity at 10 µg/mL [3]: 64%
activity at 10 µg/mL [8]: 32%

CC(C)c1ccc2oc(C(O)COc3ccc(C(=O)O)cc3)cc2c1 (stereo not shown) [Example 8, 2-[2-(4-Carboxyphenoxy)-1-hydroxyethyl]-5-isopropylbenzofuran sodium salt]
TC Change Rate ([1]; 50 mg/kg, after 7 days): -31%
TC Change Rate ([1]; 50 mg/kg, after 14 days): -31%
TC Change Rate ([1]; 50 mg/kg, after 21 days): -44%
TC Change Rate ([1]; 50 mg/kg, after 28 days): -51%

CC(C)(C)c1ccc2oc(C(O)COc3ccc(C(=O)O)cc3)cc2c1 (single isomer, unassigned; (+)) [Example 11, (+)-5-tert-Butyl-2-[2-(4-carboxyphenoxy)-1-hydroxyethyl]benzofuran]
activity at 10 µg/mL ([5]; Expt. 1): 35%
activity at 10 µg/mL ([5]; Expt. 2): 24%
activity at 10 µg/mL ([6]; Expt. 1): 12%
activity at 10 µg/mL ([6]; Expt. 2): 18%

O=C(O)c1cccnc1 [Nicotinic acid]
adverse reactions [9]: flushing
concentration of Lp(a) in blood [9]: lowers the concentration of Lp(a) in blood

CC(C)c1ccc2oc(C(O)COc3ccc(C(=O)O)cc3)cc2c1 (stereo not shown) [Example 6, 2-[2-(4-Carboxyphenoxy)-1-hydroxyethyl]5-isopropylbenzofuran]
TC Change Rate ([1]; 100 mg/kg, after 7 days): -42%

CC(C)(C)c1ccc2oc(C(O)COc3ccc(C(=O)O)cc3)cc2c1 (single isomer, unassigned; (-)) [Example 12, (-)-5-tert-Butyl-2-[2-(4-carboxyphenoxy)-1-hydroxyethyl]benzofuran]
Cholesterol Synth. ([5]; Expt. 1): 33%
Cholesterol Synth. ([5]; Expt. 2): 27%
Fatty Acid Synth. ([6]; Expt. 1): 16%
Fatty Acid Synth. ([6]; Expt. 2): 14%

CC(C)(Oc1ccc(CCNC(=O)c2ccc(Cl)cc2)cc1)C(=O)O [Bezafibrate, reference compound]
TC Change Rate ([1]; 100 mg/kg, after 7 days): -13%
TC Change Rate ([1]; 100 mg/kg, after 14 days): -10%
TC Change Rate ([1]; 100 mg/kg, after 21 days): 3%
TC Change Rate ([1]; 100 mg/kg, after 28 days): -7%
